Source: US8722849B2, “Polypeptides” (Novo Nordisk A/S, priority 2011, dated 2014)
pEC50: −log10 of the molar value. Like-named read-outs stand apart in the source and are kept apart here. Starred links: 1 amine or outer side, 2 acyl side, 3 side chain; linkers in the order of their positions; H or OH if unused. Positions of bridges follow the written chain, without caps; N, C: chain ends. Residues, ends and D or L forms follow the SMILES beside them. *: point of attachment. C20 diacid = O=C(O)CCCCCCCCCCCCCCCCCCC(=O)*; γGlu = O=C(O)[C@H](CCC(=O)[*:2])N[*:1]

Columns and labels:
[1] = target: T1, human amylin receptor (amylin 3(a) receptor: human calcitonin receptor + RAMP-3) (Homo sapiens, UniProt O60896+P30988); test: Assay (II)a functional CRE-luciferase assay, human amylin receptor; assay type: cell-based; settings: human amylin receptor
T1 construct: expressed in transfected cells; host or cells: BHK570
T1 sequence (P30988 25-474): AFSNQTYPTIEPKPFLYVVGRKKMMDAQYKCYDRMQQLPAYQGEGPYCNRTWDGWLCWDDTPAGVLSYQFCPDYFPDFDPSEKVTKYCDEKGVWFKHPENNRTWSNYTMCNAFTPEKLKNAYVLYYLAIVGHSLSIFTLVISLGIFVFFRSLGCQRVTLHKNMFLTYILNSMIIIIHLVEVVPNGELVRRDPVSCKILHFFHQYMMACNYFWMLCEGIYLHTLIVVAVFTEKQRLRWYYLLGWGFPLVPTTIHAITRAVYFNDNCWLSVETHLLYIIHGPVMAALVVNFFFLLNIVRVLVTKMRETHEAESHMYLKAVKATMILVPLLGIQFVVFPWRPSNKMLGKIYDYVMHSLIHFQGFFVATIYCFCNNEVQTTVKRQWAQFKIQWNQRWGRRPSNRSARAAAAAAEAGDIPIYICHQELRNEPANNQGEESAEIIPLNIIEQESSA
T1 sequence (O60896 24-148 partner): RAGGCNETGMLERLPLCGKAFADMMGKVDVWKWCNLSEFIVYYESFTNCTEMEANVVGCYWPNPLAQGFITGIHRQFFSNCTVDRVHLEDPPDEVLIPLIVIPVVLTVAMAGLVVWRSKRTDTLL
Description: (§1) 1. Luciferase Assay Outline
(§2) Activation of calcitonin and amylin (coexpression of calcitonin receptor and receptor activity modifying proteins (RAMP)) receptors lead to increased intracellular concentrations of cAMP. Consequently, transcription is activated by promoters containing multiple copies of the cAMP response element (CRE). It is thus possible to measure amylin activity by the use of a CRE luciferase reporter gene introduced into BHK cells also expressing calcitonin or amylin receptors.
(§3) A BHK570 cell line was stably transfected with the human calcitonin receptor and a CRE-responsive luciferase reporter gene. The cell line was further transfected with RAMP-3, using standard methods. This turns the calcitonin receptor into an amylin 3(a) receptor. Methotrexate, Neomycin, and Hygromycin are selection markers for luciferase, the calcitonin receptor, and RAMP-3, respectively.
(§4) To perform activity assays, BHK calcitonin (a) receptor- or amylin 3(a)-receptor/CRE-luc cells were seeded in white 96 well culture plates at a density of about 20.000 cells/well. […] Further, 50 μl/well of standard or sample in assay buffer were added. After 3 hours incubation at 37° C. and 5% CO2, the assay medium with standard or sample were removed and replaced by 100 μl/well PBS. Further, 100 μl/well LucLite™ was added. The plates were sealed and incubated at room temperature for 30 minutes. Finally, luminescence was measured on a TopCounter (Packard) in SPC (single photon counting) mode.

[2] = target: T2, human calcitonin receptor (Homo sapiens, UniProt P30988); test: Assay (II)a functional CRE-luciferase assay, human calcitonin receptor; assay type: cell-based
T2 construct: expressed in transfected cells; host or cells: BHK570
T2 sequence (P30988 25-474): T1 sequence (P30988 25-474)
Description: as §1, §2, §3, §4

[3] = Table 7, human calcitonin (CTa) receptor

pEC50 ([1]; Table 6)	pEC50 ([2]; Table 11, read-out: CTa receptor human EC50)	pEC50 ([1]; Table 7)	pEC50 [2, 3]	Structure (SMILES)
9.22	8.37			CC[C@H](C)[C@H](NC(=O)[C@@H]1CCCN1C(=O)CNC(=O)[C@H](Cc1ccccc1)NC(=O)[C@H](CC(N)=O)NC(=O)[C@H](CC(N)=O)NC(=O)[C@H](CO)NC(=O)[C@H](CO)NC(=O)[C@H](CCCNC(=N)N)NC(=O)[C@H](Cc1c[nH]cn1)NC(=O)[C@H](CC(C)C)NC(=O)[C@H](Cc1ccccc1)NC(=O)[C@H](CCC(=O)O)NC(=O)[C@H](C)NC(=O)[C@H](CC(C)C)NC(=O)[C@H](CCCNC(=N)N)NC(=O)[C@H](CCC(N)=O)NC(=O)[C@@H](NC(=O)[C@H](CCC(=O)O)NC(=O)[C@@H]1CSSC[C@H](NC(=O)[C@H](Cc2c[nH]cn2)NC(=O)CC[C@H](NC(=O)CCCCCCCCCCCCCCCCCCC(=O)O)C(=O)O)C(=O)N[C@@H](CC(N)=O)C(=O)N[C@@H]([C@@H](C)O)C(=O)N[C@@H](C)C(=O)N[C@@H]([C@@H](C)O)C(=O)N1)[C@@H](C)O)C(=O)N[C@@H](CC(C)C)C(=O)N1CCC[C@H]1C(=O)N1CCC[C@H]1C(=O)N[C@H](C(=O)N[C@@H](CC(N)=O)C(=O)N[C@H](C(=O)NCC(=O)N[C@@H](CO)C(=O)N[C@@H](CC(N)=O)C(=O)N[C@H](C(=O)N[C@@H](Cc1ccc(O)cc1)C(N)=O)[C@@H](C)O)C(C)C)[C@@H](C)O [Example 2, N-alpha-[(S)-4-Carboxy-4-(19-carboxynonadecanoylamino)butyryl]-[His1,Glu8,Glu14,His17,Arg18]-pramlintide] ({C20 diacid-γGlu}-HCNTATCETQRLAEFLHRSSNNFGPILPPTNVGSNTY-NH2; disulfide 2-7 (inferred))
		9.89	9.34	CC[C@H](C)[C@H](NC(=O)[C@@H]1CCCN1C(=O)CNC(=O)[C@H](Cc1ccccc1)NC(=O)[C@H](CC(N)=O)NC(=O)[C@H](CC(N)=O)NC(=O)[C@H](CO)NC(=O)[C@H](CO)NC(=O)[C@H](Cc1c[nH]cn1)NC(=O)[C@H](CCCNC(=N)N)NC(=O)[C@H](CC(C)C)NC(=O)[C@H](Cc1ccccc1)NC(=O)[C@H](CCCNC(=N)N)NC(=O)[C@H](C)NC(=O)[C@H](CC(C)C)NC(=O)[C@H](CCCNC(=N)N)NC(=O)[C@H](CCC(N)=O)NC(=O)[C@@H](NC(=O)[C@H](C)NC(=O)[C@@H]1CSSC[C@H](NC(=O)[C@H](CCCCN)NC(=O)CC[C@H](NC(=O)CCCCCCCCCCCCCCCCCCC(=O)O)C(=O)O)C(=O)N[C@@H](CC(N)=O)C(=O)N[C@@H]([C@@H](C)O)C(=O)N[C@@H](C)C(=O)N[C@@H]([C@@H](C)O)C(=O)N1)[C@@H](C)O)C(=O)N[C@@H](CC(C)C)C(=O)N1CCC[C@H]1C(=O)N1CCC[C@H]1C(=O)N[C@H](C(=O)N[C@@H](CC(N)=O)C(=O)N[C@H](C(=O)NCC(=O)N[C@@H](CO)C(=O)N[C@@H](CC(N)=O)C(=O)N[C@H](C(=O)N1CCC[C@H]1C(N)=O)[C@@H](C)O)C(C)C)[C@@H](C)O [Example 152, N-alpha-[(S)-4-Carboxy-4-(19-carboxynonadecanoylamino)butyryl]-[Arg14,Arg17,Pro37]-pramlintide] ({C20 diacid-γGlu}-KCNTATCATQRLARFLRHSSNNFGPILPPTNVGSNTP-NH2; disulfide 2-7 (inferred); C-terminus assumed)
10.37			10.39	CC[C@H](C)[C@H](NC(=O)[C@@H]1CCCN1C(=O)CNC(=O)[C@H](Cc1ccccc1)NC(=O)[C@H](CC(N)=O)NC(=O)[C@H](CC(N)=O)NC(=O)[C@H](CO)NC(=O)[C@H](CO)NC(=O)[C@H](Cc1c[nH]cn1)NC(=O)[C@H](CCCNC(=N)N)NC(=O)[C@H](CC(C)C)NC(=O)[C@H](Cc1ccccc1)NC(=O)[C@H](CCC(=O)O)NC(=O)[C@H](C)NC(=O)[C@H](CC(C)C)NC(=O)[C@H](CCCNC(=N)N)NC(=O)[C@H](CCC(N)=O)NC(=O)[C@@H](NC(=O)[C@H](C)NC(=O)[C@@H]1CSSC[C@H](NC(=O)[C@H](CCCNC(=N)N)NC(=O)CNC(=O)CC[C@H](NC(=O)CCCCCCCCCCCCCCCCCCC(=O)O)C(=O)O)C(=O)N[C@@H](CC(N)=O)C(=O)N[C@@H]([C@@H](C)O)C(=O)N[C@@H](C)C(=O)N[C@@H]([C@@H](C)O)C(=O)N1)[C@@H](C)O)C(=O)N[C@@H](CC(C)C)C(=O)N1CCC[C@H]1C(=O)N1CCC[C@H]1C(=O)N[C@H](C(=O)N[C@@H](CC(N)=O)C(=O)N[C@H](C(=O)NCC(=O)N[C@@H](CO)C(=O)N[C@@H](CC(N)=O)C(=O)N[C@H](C(=O)N1CCC[C@H]1C(N)=O)[C@@H](C)O)C(C)C)[C@@H](C)O [Example 153, N-alpha-[(S)-4-Carboxy-4-(19-carboxynonadecanoylamino)butyryl]-Gly-[Arg1,Glu14,Arg17,Pro37]-pramlintide] ({C20 diacid-γGlu}-GRCNTATCATQRLAEFLRHSSNNFGPILPPTNVGSNTP-NH2; disulfide 3-8 (inferred))
			10.24	CC[C@H](C)[C@H](NC(=O)[C@@H]1CCCN1C(=O)CNC(=O)[C@H](Cc1ccccc1)NC(=O)[C@H](CC(N)=O)NC(=O)[C@H](CC(N)=O)NC(=O)[C@H](CO)NC(=O)[C@H](CO)NC(=O)[C@H](Cc1c[nH]cn1)NC(=O)[C@H](CCCNC(=N)N)NC(=O)[C@H](CC(C)C)NC(=O)[C@H](Cc1ccccc1)NC(=O)[C@H](CC(N)=O)NC(=O)[C@H](C)NC(=O)[C@H](CC(C)C)NC(=O)[C@H](CCCNC(=N)N)NC(=O)[C@H](CCC(N)=O)NC(=O)[C@@H](NC(=O)[C@H](C)NC(=O)[C@@H]1CSSC[C@H](NC(=O)[C@H](CCCCN)NC(=O)CC[C@H](NC(=O)CCCCCCCCCCCCCCCCCCC(=O)O)C(=O)O)C(=O)N[C@@H](CC(N)=O)C(=O)N[C@@H]([C@@H](C)O)C(=O)N[C@@H](C)C(=O)N[C@@H]([C@@H](C)O)C(=O)N1)[C@@H](C)O)C(=O)N[C@@H](CC(C)C)C(=O)N1CCC[C@H]1C(=O)N1CCC[C@H]1C(=O)N[C@H](C(=O)N[C@@H](CC(N)=O)C(=O)N[C@H](C(=O)NCC(=O)N[C@@H](CO)C(=O)N[C@@H](CC(N)=O)C(=O)N[C@H](C(=O)N1CCC[C@H]1C(N)=O)[C@@H](C)O)C(C)C)[C@@H](C)O [Example 154, N-alpha-[(S)-4-Carboxy-4-(19-carboxynonadecanoylamino)butyryl]-[Arg17,Pro37]-pramlintide] ({C20 diacid-γGlu}-KCNTATCATQRLANFLRHSSNNFGPILPPTNVGSNTP-NH2; disulfide 2-7 (inferred); C-terminus assumed)
